Measurements taken from patent publication US8354403B2, “Pyrrolidine derived beta 3 adrenergic receptor agonists” (Merck Sharp & Dohme Corp., priority 2009, dated 2013).
Counter-ions that a name gives are not always drawn.

molecular target: T1, human β3 adrenergic receptor (Homo sapiens, UniProt P13945); assay: Beta-3 agonist in vitro functional assay: cAMP production (LANCE TR-FRET) in CHO cells stably transfected with the cloned β3 receptor; assay type: cell-based; details: Table 9; Beta-3 agonist in vitro functional assay; read-out: Human β3 agonist functional activity
T1 construct: expressed in transfected cells; host or cells: Chinese hamster ovary (CHO) cells, stably transfected
T1 sequence (P13945 whole entry): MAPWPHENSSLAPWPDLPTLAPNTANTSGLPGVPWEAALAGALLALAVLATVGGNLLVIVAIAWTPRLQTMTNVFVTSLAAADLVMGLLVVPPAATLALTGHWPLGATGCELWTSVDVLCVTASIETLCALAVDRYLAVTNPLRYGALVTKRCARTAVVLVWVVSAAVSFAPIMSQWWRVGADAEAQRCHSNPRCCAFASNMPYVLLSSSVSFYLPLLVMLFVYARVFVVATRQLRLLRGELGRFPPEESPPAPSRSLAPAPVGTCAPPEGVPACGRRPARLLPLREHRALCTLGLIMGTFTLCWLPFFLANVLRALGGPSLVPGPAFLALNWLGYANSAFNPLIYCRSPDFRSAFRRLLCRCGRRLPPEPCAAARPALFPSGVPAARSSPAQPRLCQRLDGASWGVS
Procedure, shortened: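 CHO cells stably expressing the cloned receptor, in HEPES-buffered HBSS with BSA and 0.6 mM IBMX, 6,000 cells/well, exposed to compound for 30 min at RT. cAMP read by LANCE TR-FRET against a cAMP standard curve. Isoproterenol defines maximal stimulation.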

SMILES | EC50 [nM]
CC(C)n1nnc(CN2CCN(C(=O)c3ccc(C[C@@H]4CC[C@H]([C@H](O)c5ccccc5)N4)cc3)CC2)n1 [Example 402] | 10 to 99.9
O=C(c1ccc(C[C@@H]2CC[C@H]([C@H](O)c3ccccc3)N2)cc1)N1CCN(Cc2nc3ccccc3o2)CC1 [Example 403] | 1 to 9.9
O=C(c1ccc(C[C@@H]2CC[C@H]([C@H](O)c3ccccc3)N2)cc1)N1CCN(Cc2nc3ccccc3s2)CC1 [Example 404] | 10 to 99.9
O=C(c1ccc(C[C@@H]2CC[C@H]([C@H](O)c3ccccc3)N2)cc1)N1CCN(Cc2n[nH]c3ccccc23)CC1 [Example 405] | 1 to 9.9
O=C(c1ccc(C[C@@H]2CC[C@H]([C@H](O)c3ccccc3)N2)cc1)N1CCN(Cc2n[nH]c3ncccc23)CC1 [Example 406] | 10 to 99.9
O=C(c1ccc(C[C@@H]2CC[C@H]([C@H](O)c3ccccc3)N2)cc1)N1CCN(Cc2noc3ccccc23)CC1 [Example 407] | 1 to 9.9
O=C(c1ccc(C[C@@H]2CC[C@H]([C@H](O)c3ccccc3)N2)cc1)N1CCN(Cc2cnn(-c3ccccc3)n2)CC1 [Example 408] | 1 to 9.9
COc1ccccc1CN1CCN(C(=O)c2ccc(C[C@@H]3CC[C@H]([C@H](O)c4ccccc4)N3)cc2)CC1 [Example 409] | 10 to 99.9
O=C(c1ccc(C[C@@H]2CC[C@H]([C@H](O)c3ccccc3)N2)cc1)N1CCN(Cc2ccccc2F)CC1 [Example 410] | 10 to 99.9
O=C(c1ccc(C[C@@H]2CC[C@H]([C@H](O)c3ccccc3)N2)cc1)N1CCN(Cc2c(F)cccc2F)CC1 [Example 411] | 1 to 9.9
CC(C)(c1ccccc1F)N1CCN(C(=O)c2ccc(C[C@@H]3CC[C@H]([C@H](O)c4ccccc4)N3)cc2)CC1 [Example 412] | 1 to 9.9
O=C(c1ccc(C[C@@H]2CC[C@H]([C@H](O)c3ccccc3)N2)cc1)N1CCN(Cc2ncccc2O)CC1 [Example 413] | 10 to 99.9
COc1cccnc1CN1CCN(C(=O)c2ccc(C[C@@H]3CC[C@H]([C@H](O)c4ccccc4)N3)cc2)CC1 [Example 414] | 10 to 99.9
CC(C)Oc1cccnc1CN1CCN(C(=O)c2ccc(C[C@@H]3CC[C@H]([C@H](O)c4ccccc4)N3)cc2)CC1 [Example 415] | 10 to 99.9
O=C(c1ccc(C[C@@H]2CC[C@H]([C@H](O)c3ccccc3)N2)cc1)N1CCN(Cc2ncccc2Br)CC1 [Example 416] | 10 to 99.9
O=C(c1ccc(C[C@@H]2CC[C@H]([C@H](O)c3ccccc3)N2)cc1)N1CCN(Cc2ncccc2C(F)(F)F)CC1 [Example 417] | 10 to 99.9
O=C(c1ccc(C[C@@H]2CC[C@H]([C@H](O)c3ccccc3)N2)cc1)N1CCN(Cc2ncccc2F)CC1 [Example 418] | 10 to 99.9
CC(C)C(c1ccccn1)N1CCN(C(=O)c2ccc(C[C@@H]3CC[C@H]([C@H](O)c4ccccc4)N3)cc2)CC1 (stereo partly drawn) [Example 419] | 10 to 99.9
O=C(c1ccc(C[C@@H]2CC[C@H]([C@H](O)c3ccccc3)N2)cc1)N1CCN(C2(c3ccccn3)CC2)CC1 [Example 420] | 100 to 999
CC(c1nnco1)N1CCN(C(=O)c2ccc(C[C@@H]3CC[C@H]([C@H](O)c4ccccc4)N3)cc2)CC1 (stereo partly drawn) [Example 421] | 10 to 99.9
Cc1noc(C(C)N2CCN(C(=O)c3ccc(C[C@@H]4CC[C@H]([C@H](O)c5ccccc5)N4)cc3)CC2)n1 (stereo partly drawn) [Example 422] | 10 to 99.9
CC(c1nn[nH]n1)N1CCN(C(=O)c2ccc(C[C@@H]3CC[C@H]([C@H](O)c4ccccc4)N3)cc2)CC1 (stereo partly drawn) [Example 423] | 10 to 99.9
Cc1nnc(C(C)N2CCN(C(=O)c3ccc(C[C@@H]4CC[C@H]([C@H](O)c5ccccc5)N4)cc3)CC2)o1 (stereo partly drawn) [Example 424] | 100 to 999
CC(c1ncccc1F)N1CCN(C(=O)c2ccc(C[C@@H]3CC[C@H]([C@H](O)c4ccccc4)N3)cc2)CC1 (stereo partly drawn) [Example 425] | 10 to 99.9
O=C(c1ccc(C[C@@H]2CC[C@H]([C@H](O)c3ccccc3)N2)cc1)N1CCN(Cc2cnccn2)CC1 [Example 426] | 10 to 99.9
O=C(c1ccc(C[C@@H]2CC[C@H]([C@H](O)c3ccccc3)N2)cc1)N1CCN(Cc2ccncn2)CC1 [Example 427] | 10 to 99.9
CC(c1cnccn1)N1CCN(C(=O)c2ccc(C[C@@H]3CC[C@H]([C@H](O)c4ccccc4)N3)cc2)CC1 (stereo partly drawn) [Example 428] | 10 to 99.9
O=C(c1ccc(C[C@@H]2CC[C@H]([C@H](O)c3ccccc3)N2)cc1)N1CCN(Cc2nccc3ccccc23)CC1 [Example 429] | 10 to 99.9
CC(c1ccccn1)N1CCN(C(=O)c2ccc(CC3CCC(C(O)c4ccccc4)N3)cc2)CC1 (stereo not drawn) [Example 430] | 1 to 9.9
C[C@@H](c1ccccn1)N1CCN(C(=O)c2ccc(C[C@@H]3CC[C@H]([C@H](O)c4ccccc4)N3)cc2)CC1 [Example 431] | 10 to 99.9

same assay, conditions: Table 10; Beta-3 agonist in vitro functional assay; read-out: Human β3 agonist functional activity

SMILES | EC50 [nM]
CC(C(=O)O)N1CCN(C(=O)c2ccc(C[C@@H]3CC[C@H]([C@H](O)c4ccccc4)N3)cc2)CC1 (stereo partly drawn) [Example 433] | 1 to 9.9
COC(=O)C(C)N1CCN(C(=O)c2ccc(C[C@@H]3CC[C@H]([C@H](O)c4ccccc4)N3)cc2)CC1 (stereo partly drawn) [Example 434] | 1 to 9.9
CNC(=O)C(C)N1CCN(C(=O)c2ccc(C[C@@H]3CC[C@H]([C@H](O)c4ccccc4)N3)cc2)CC1 (stereo partly drawn) [Example 435] | 10 to 99.9
CCNC(=O)C(C)N1CCN(C(=O)c2ccc(C[C@@H]3CC[C@H]([C@H](O)c4ccccc4)N3)cc2)CC1 (stereo partly drawn) [Example 436] | 100 to 999
CC(C)NC(=O)C(C)N1CCN(C(=O)c2ccc(C[C@@H]3CC[C@H]([C@H](O)c4ccccc4)N3)cc2)CC1 (stereo partly drawn) [Example 437] | 100 to 999
CC(C)CCNC(=O)C(C)N1CCN(C(=O)c2ccc(C[C@@H]3CC[C@H]([C@H](O)c4ccccc4)N3)cc2)CC1 (stereo partly drawn) [Example 438] | 100 to 999
CCC(C)(C)NC(=O)C(C)N1CCN(C(=O)c2ccc(C[C@@H]3CC[C@H]([C@H](O)c4ccccc4)N3)cc2)CC1 (stereo partly drawn) [Example 439] | 1 to 9.9
CC[C@@H](C)NC(=O)C(C)N1CCN(C(=O)c2ccc(C[C@@H]3CC[C@H]([C@H](O)c4ccccc4)N3)cc2)CC1 (stereo partly drawn) [Example 440] | 10 to 99.9
CC(C)[C@@H](C)NC(=O)C(C)N1CCN(C(=O)c2ccc(C[C@@H]3CC[C@H]([C@H](O)c4ccccc4)N3)cc2)CC1 (stereo partly drawn) [Example 441] | 10 to 99.9
COCCNC(=O)C(C)N1CCN(C(=O)c2ccc(C[C@@H]3CC[C@H]([C@H](O)c4ccccc4)N3)cc2)CC1 (stereo partly drawn) [Example 442] | 100 to 999
CC(C(=O)NCC(C)(C)O)N1CCN(C(=O)c2ccc(C[C@@H]3CC[C@H]([C@H](O)c4ccccc4)N3)cc2)CC1 (stereo partly drawn) [Example 443] | 10 to 99.9
CC(C(=O)NC(C)(C)CO)N1CCN(C(=O)c2ccc(C[C@@H]3CC[C@H]([C@H](O)c4ccccc4)N3)cc2)CC1 (stereo partly drawn) [Example 444] | 100 to 999
CC(C(=O)NCC(N)=O)N1CCN(C(=O)c2ccc(C[C@@H]3CC[C@H]([C@H](O)c4ccccc4)N3)cc2)CC1 (stereo partly drawn) [Example 445] | 100 to 999
COC[C@H](C)NC(=O)C(C)N1CCN(C(=O)c2ccc(C[C@@H]3CC[C@H]([C@H](O)c4ccccc4)N3)cc2)CC1 (stereo partly drawn) [Example 446] | 10 to 99.9

same assay, conditions: given as a range; cAMP, CHO cells; read-out: human β3 functional activity

SMILES | EC50 [nM]
CC(C(=O)N1CCC(F)(F)C1)N1CCN(C(=O)c2ccc(C[C@@H]3CC[C@H]([C@H](O)c4ccccc4)N3)cc2)CC1 (stereo partly drawn) [Example 432, (R)-{(2R,5S)-5-[4-({4-{2-(3,3,-Difluoropyrrolidin-1-yl)-1-methyl-2-oxoethyl]piperazine-1-yl}carbonyl)benzyl}pyrrolidin-2-yl)(phenyl)methanol, TFA salt] | 10 to 99.9
